From ChEMBL document CHEMBL2311379, “Design and synthesis of 2-(3-alkylaminophenyl)-6-(pyrrolidin-1-yl)quinolin-4-ones as potent antitumor agents” (Bioorg Med Chem Lett, 2013)
The source made the active and inactive calls. No cut-off for these calls is given here.

Tests used:
[1] = Cytotoxicity against human H460 cells; type: functional, cell-based; conditions: NCI-H460
[2] = tested on: Detroit 551; assay: Cytotoxicity against human Detroit 551 cells; type: cell-based
[3] = tested on: HL-60; assay: Cytotoxicity against human HL60 cells; type: functional, cell-based
[4] = Cytotoxicity against human Hep3B cells; type: functional, cell-based, Hep 3B2
[5] = tested on: Mus musculus; assay: Toxicity in human Hep3B cells xenografted nude mouse assessed as mouse body weight changes at 20 mg/kg, ip qd administered for 5 days per week for 4 consecutive weeks; type: organism-based, Hep 3B2; parameters: dose 20 mg/kg, route intraperitoneal; conditions: in vivo, 120 h
[6] = tested on: Mus musculus; assay: Toxicity in human Hep3B cells xenografted nude mouse assessed as mouse body weight changes at 10 mg/kg, ip qd administered for 5 days per week for 4 consecutive weeks; type: organism-based, Hep 3B2; parameters: dose 10 mg/kg, route intraperitoneal; conditions: in vivo, 120 h
[7] = tested on: Hep 3B2; assay: Antitumor activity against human Hep3B cells xenografted in nude mouse assessed as inhibition of tumor growth at 10 mg/kg, ip qd administered for 5 days per week for 4 consecutive weeks; type: functional, organism-based; parameters: dose 10 mg/kg
[8] = Antitumor activity against human Hep3B cells xenografted in nude mouse assessed as inhibition of tumor growth at 20 mg/kg, ip qd administered for 5 days per week for 4 consecutive weeks; type: functional, Hep 3B2; conditions: 120 h, route intraperitoneal, read-out: TGI
[9] = Cytotoxicity against human NCI60 cells; type: functional

SMILES	IC50 [1] [µM]	IC50 [2] [µM]	IC50 [3] [µM]	IC50 [4] [µM]	Activity [5]	Activity [6]	TGI [7]	inhibition in vivo at 20 mg/kg [8] [%]	GI50 [9] [µM]
CN(C)c1cccc(-c2cc(=O)c3cc(N4CCCC4)ccc3[nH]2)c1	0.013	> 1	0.005	0.015					
CNc1cccc(-c2cc(=O)c3cc(N4CCCC4)ccc3[nH]2)c1	0.035	> 10	0.006	0.021	Non-toxic	Non-toxic	Active	70	
CCNc1cccc(-c2cc(=O)c3cc(N4CCCC4)ccc3[nH]2)c1	0.02	> 10	0.005	0.02					
COc1cccc(-c2cc(O)c3cc(N4CCCC4)ccc3n2)c1									0.00191
